Test results as given in PubChem BioAssay (NCI).
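In this assay, cells in 96-well plates receive the compound at five concentrations for 48 hours. Endpoints are linearly interpolated between the surrounding concentrations. Abbreviation: GI50, concentration required for 50% inhibition of growth. The concentration for full growth arrest is given as TGI.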

Legend:
Assay in all cases: NCI-60 cell line screen, 48 h
LOX IMVI melanoma = tested on: LOX IMVI melanoma
KM12 colon = tested on: KM12 colon
HCT-15 colon = tested on: HCT-15 colon
U251 CNS = tested on: U251 CNS
NCI/ADR-RES ovarian = tested on: NCI/ADR-RES ovarian
UO-31 renal = tested on: UO-31 renal
HCT-116 colon = tested on: HCT-116 colon
NCI-H23 lung = tested on: NCI-H23 lung
M14 melanoma = tested on: M14 melanoma
MDA-MB-435 = tested on: MDA-MB-435

SMILES | GI50 (LOX IMVI melanoma) | TGI (LOX IMVI melanoma) | GI50 (KM12 colon) | TGI (KM12 colon) | GI50 (HCT-15 colon) | TGI (HCT-15 colon) | GI50 (U251 CNS) | TGI (U251 CNS) | GI50 (NCI/ADR-RES ovarian) | TGI (NCI/ADR-RES ovarian) | GI50 (UO-31 renal) | TGI (UO-31 renal) | GI50 (HCT-116 colon) | TGI (HCT-116 colon) | GI50 (NCI-H23 lung) | TGI (NCI-H23 lung) | GI50 (M14 melanoma) | TGI (M14 melanoma) | GI50 (MDA-MB-435) | TGI (MDA-MB-435)
CCCN1C(=O)N(CCC)C2C1NC(=S)N2/N=C/C=C/c1ccccc1OC (stereo not drawn) | 0.627 µM | 21.3 µM | 0.422 µM | > 100 µM | 0.537 µM | > 100 µM | 0.588 µM | 27.4 µM | 0.498 µM | > 100 µM | 1.26 µM | > 100 µM | 0.445 µM | > 100 µM | 2.66 µM | > 100 µM | 0.455 µM | > 100 µM |  | 
Cc1ccc(/C=C/C(=O)c2sc(-c3nc(C)c(C(=O)/C=C/c4ccc(C)cc4)s3)nc2C)cc1 |  | > 100 µM |  | > 100 µM |  | > 100 µM |  | > 100 µM |  |  |  | > 100 µM |  |  |  | > 100 µM |  |  |  | 
Cc1cc(Cl)ccc1NC(=O)C(=O)Cc1nc2ccccc2o1 |  | > 100 µM |  | > 100 µM |  | > 100 µM |  | > 100 µM |  |  |  | > 100 µM |  | > 100 µM |  | > 100 µM |  | > 100 µM |  | 
COc1cc(-c2cc(-c3cc4c([nH]c5ccccc54)c(-c4cc(OC)c(OC)c(OC)c4)n3)cc(-c3ccccc3)n2)cc(OC)c1OC | 4.42 µM | 26.5 µM | 4.09 µM | > 100 µM | 3.37 µM | > 100 µM | 4.25 µM | 29.1 µM | 3.12 µM | 94.8 µM | 3.02 µM | 74.4 µM | 4.02 µM | > 100 µM | 5.52 µM | > 100 µM | 3.49 µM | > 100 µM |  | 
O=C(Nc1nc(=S)c2c(ncn2CCOC(=O)c2ccccc2)[nH]1)c1ccccc1 |  | > 100 µM |  | > 100 µM |  | > 100 µM |  | > 100 µM |  |  |  | > 100 µM |  | > 100 µM |  |  |  | > 100 µM |  | 
CN(C)CC1CCCC/C1=N/OC(=O)c1ccc(Cl)cc1 (stereo not drawn) |  | > 100 µM |  | > 100 µM |  | > 100 µM |  | > 100 µM |  |  |  | > 100 µM |  | > 100 µM |  | > 100 µM |  | > 100 µM |  | 
Nc1c(C(=O)Nc2ccncc2)sc2nc3c(cc12)CCCCCCCC3 | 0.845 µM | 1.56 µM | 0.877 µM | 1.62 µM | 0.962 µM | 1.8 µM | 0.933 µM | 1.73 µM | 0.921 µM | 1.78 µM | 0.772 µM | 1.49 µM |  |  | 0.9 µM | 1.74 µM | 0.93 µM | 1.75 µM | 0.869 µM | 1.6 µM
O=C1/C(=C/c2cccc(Cl)c2Cl)N=C(c2ccccc2)N1C1CC1 | 7.11 µM | 17.4 µM | 11.9 µM | 34.4 µM | 12.3 µM | 39 µM | 12.6 µM | 34.7 µM | 11.8 µM | 31.1 µM | 28.5 µM | > 50 µM | 8.98 µM | 18.9 µM | 9.35 µM | 19.5 µM |  |  | 11.1 µM | 24.1 µM
Cc1cc(N(CCC#N)CCC#N)ccc1N=Nc1ccc(C(=O)O)cc1 |  | > 100 µM |  | > 100 µM |  | > 100 µM |  | > 100 µM |  |  |  | > 100 µM |  |  |  | > 100 µM |  | > 100 µM |  | 
CCOC(=O)C(=[N+]=[N-])[Si](C)(C)C |  | > 100 µM |  | > 100 µM |  | > 100 µM |  | 69.2 µM |  |  |  |  |  | > 100 µM |  | > 100 µM |  |  |  | 
NC(=O)C12CC3CC(CC(F)(C3)C1)C2 |  | > 100 µM |  | > 100 µM |  |  |  | > 100 µM |  |  |  | > 100 µM |  | > 100 µM |  | > 100 µM |  | > 100 µM |  | 
Nc1nc(/C=C\c2ccc([N+](=O)[O-])s2)nc(N2CCCC2)n1 | 0.198 µM | 2.41 µM | 1.22 µM | 6.51 µM |  |  |  |  | 4.51 µM | 23.2 µM | 7.58 µM | 22.2 µM | 1.1 µM | 4.68 µM | 5.84 µM | 18.6 µM | 3.72 µM | 17.1 µM | 2.24 µM | 8.09 µM
CCN1CCC(O)(c2ccc(OC)cc2)C(C(=O)c2ccc(OC)cc2)C1 (stereo not drawn) |  | 45.1 µM |  | 42.1 µM |  | 43.1 µM |  | 30.5 µM |  |  |  | 35.3 µM |  | 52.4 µM |  | 35.3 µM |  | 29.7 µM |  | 
Cc1ccc(NC(=O)CCc2cc(C(C)(C)C)nc(=S)[nH]2)cc1C |  | > 100 µM |  | > 100 µM |  | > 100 µM |  | > 100 µM |  |  |  | > 100 µM |  | > 100 µM |  | > 100 µM |  | > 100 µM |  | 
COc1cc2c3c(n(C)c(=O)c2cc1OC)-c1cc2c(cc1/C3=C\CN)OCO2 | 0.133 µM | 1.46 µM | 1.18 µM | 12.1 µM | 0.778 µM | 19.8 µM | 0.0395 µM | 3.31 µM | 1.21 µM | 68.7 µM | 0.621 µM | > 41.1 µM | 0.0713 µM | 0.437 µM | 0.249 µM | 8.77 µM |  |  | 0.819 µM | 33.8 µM
OCC1OC(c2nc(C3=NCCCN3)cs2)C(O)C1O (stereo not drawn) |  | > 100 µM |  | > 10 µM |  | > 100 µM |  | > 100 µM |  |  |  | > 100 µM |  | > 100 µM |  | > 100 µM |  | > 100 µM |  | 
[N-]=[N+]=N[C@H]1C[C@@H](CO)O[C@H]1n1cnc2c(N)ncnc21 |  | > 100 µM |  | > 100 µM |  |  |  | > 100 µM |  |  |  | > 100 µM |  | > 100 µM |  | > 100 µM |  | > 100 µM |  | 
CCCc1nc(NC#N)nc(C(=O)Nc2ccccc2)c1CC |  | > 100 µM |  | > 100 µM |  | > 100 µM |  | > 100 µM |  |  |  | > 100 µM |  | > 100 µM |  | > 100 µM |  | > 100 µM |  | 
CC1c2c(Cl)nc3ccccc3c2Oc2c1c(Cl)nc1ccccc21 |  | > 100 µM |  | > 100 µM |  |  |  | > 100 µM |  |  |  | > 100 µM |  | > 100 µM |  | > 100 µM |  |  |  | 
C=C(C)[C@@H]1CC[C@]2(C)[C@H](CC=C3[C@@H]4CC(C)(C)CC[C@]4(C(N)=O)CC[C@]32C)[C@@]1(C)CCC#N | 3.69 µM | > 100 µM | 3.1 µM | 14.8 µM | 3.14 µM | > 100 µM | 4.35 µM | > 100 µM | 3.75 µM | > 100 µM | 2.55 µM | 7.52 µM |  |  | 3.66 µM | > 100 µM | 3.11 µM | > 100 µM | 3.21 µM | 20.5 µM
